What was measured:
Conditions in all cases: incubation time: 72 h
Hs578T [1] = assay: normalised viability (% of control), CellTiter-Blue; higher = more viable cells (about 100 = DMSO control)
How it was run: (§1)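 Seeded at 20 µl suspension per well onto compound-loaded 384-well plates, breast cancer cell lines were incubated 72 h. CellTiter-Blue fluorescence at 560/590 nm was then read, with each plate normalised to vehicle (100) and a positive kill control (0). Normalised viability is reported at a single listed concentration of the series.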

MDA-MB-453 [2] = assay: as above
How it was run: as §1

MFM-223 [3] = assay: as above
How it was run: as §1

MDA-MB-436 [4] = assay: as above
How it was run: as §1

CAL-148 [5] = assay: as above
How it was run: as §1

DU-4475 [6] = assay: as above
How it was run: as §1

CAL-120 [7] = assay: as above
How it was run: as §1

Hs578T [8] = assay: drug sensitivity score (DSS), CellTiter-Blue viability (DSS (AUC-based score)); higher = stronger viability inhibition; extreme values may be limits of the assay
Description: (§2)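 DSRT with the CellTiter-Blue (resazurin reduction) viability readout, fluorescence 560/590 nm, 72 h incubation. Plates were normalised to DMSO and benzethonium chloride controls. DSS is computed from the area under the fitted dose-response curve (5 or 9 concentrations).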

HDQ-P1 = assay: as above
Description: as §2

HCC1599 = assay: as above
Description: as §2

MDA-MB-453 [9] = assay: as above
Description: as §2

CAL-51 = assay: as above
Description: as §2

BT-549 = assay: as above
Description: as §2

SK-BR-3 = assay: as above
Description: as §2

MDA-MB-468 = assay: as above
Description: as §2

MDA-MB-231 = assay: as above
Description: as §2

MFM-223 [10] = assay: as above
Description: as §2

MDA-MB-436 [11] = assay: as above
Description: as §2

BT-474 = assay: as above
Description: as §2

HCC1143 = assay: as above
Description: as §2

CAL-148 [12] = assay: as above
Description: as §2

CAL-85-1 = assay: as above
Description: as §2

DU-4475 [13] = assay: as above
Description: as §2

CAL-120 [14] = assay: as above
Description: as §2

HCC1937 = assay: as above
Description: as §2

Nc1nc2[nH]cc(CCc3ccc(C(=O)N[C@@H](CCC(=O)O)C(=O)O)cc3)c2c(=O)[nH]1 [Pemetrexed]
normalised viability [%]
Conditions | CAL-120 [7] | CAL-148 [5] | DU-4475 [6] | Hs578T [1] | MDA-MB-436 [4] | MDA-MB-453 [2] | MFM-223 [3]
3 nM | – | 95 | 106 | – | – | 128 | –
10 nM | 84.2 | – | – | 124 | 107 | – | 96.2
30 nM | – | 105 | 117 | – | – | 96 | –
100 nM | – | 106 | 108 | – | – | 114 | –
1000 nM | 77.4 | – | – | 106 | 75.3 | – | 101
10000 nM | 63.3 | – | – | 82.5 | 82.5 | – | 98.2

Conditions | drug sensitivity score
BT-474 | 0
BT-549 | 0
CAL-51 | 0
CAL-85-1 | 5.19
CAL-120 [14] | 1.61
CAL-148 [12] | 0
DU-4475 [13] | 0
HCC1143 | 3.58
HCC1599 | 0
HCC1937 | 0
HDQ-P1 | 0
Hs578T [8] | 0
MDA-MB-231 | 0
MDA-MB-436 [11] | 0
MDA-MB-453 [9] | 0
MDA-MB-468 | 0
MFM-223 [10] | 0
SK-BR-3 | 9.22

Cc1cnc(NC(=O)Nc2cc(Br)c(C)cc2OC[C@@H]2CNCCO2)cn1
normalised viability [%]
Conditions | CAL-120 [7] | CAL-148 [5] | DU-4475 [6] | Hs578T [1] | MDA-MB-436 [4] | MDA-MB-453 [2] | MFM-223 [3]
0.3 nM | – | 99.2 | 116 | – | – | 109 | –
1 nM | 88.5 | – | – | 92.6 | 104 | – | 104
3 nM | – | 90 | 94.6 | – | – | 111 | –
10 nM | – | 96.3 | 106 | – | – | 105 | –
100 nM | 96.4 | – | – | 102 | 83.4 | – | 98.8
1000 nM | 90.1 | – | – | 35 | 67.8 | – | 79.5

Conditions | drug sensitivity score
BT-474 | 0
BT-549 | 0
CAL-51 | 0
CAL-85-1 | 0
CAL-120 [14] | 0
CAL-148 [12] | 0
DU-4475 [13] | 0
HCC1143 | 0
HCC1599 | 2.32
HCC1937 | 5.26
HDQ-P1 | 0
Hs578T [8] | 1.59
MDA-MB-231 | 0
MDA-MB-436 [11] | 3.49
MDA-MB-453 [9] | 0
MDA-MB-468 | 0
MFM-223 [10] | 0
SK-BR-3 | 1.9

Nc1ccccc1NC(=O)c1ccc(CNC(=O)OCc2cccnc2)cc1 [Entinostat]
normalised viability [%]
Conditions | CAL-120 [7] | CAL-148 [5] | DU-4475 [6] | Hs578T [1] | MDA-MB-436 [4] | MDA-MB-453 [2] | MFM-223 [3]
3 nM | – | 85.4 | 117 | – | – | 132 | –
10 nM | 90.1 | – | – | 100 | 115 | – | 110
30 nM | – | 84.9 | 117 | – | – | 130 | –
100 nM | – | 86.7 | 105 | – | – | 110 | –
1000 nM | 57.9 | – | – | 97.6 | 96 | – | 93.6
10000 nM | 30.8 | – | – | 25 | 52.8 | – | 19.9

Conditions | drug sensitivity score
BT-474 | 3.64
BT-549 | 0
CAL-51 | 1.7
CAL-85-1 | 5.41
CAL-120 [14] | 8.06
CAL-148 [12] | 5.16
DU-4475 [13] | 2.81
HCC1143 | 2.98
HCC1599 | 4.98
HCC1937 | 4.61
HDQ-P1 | 0
Hs578T [8] | 2.77
MDA-MB-231 | 4.99
MDA-MB-436 [11] | 0
MDA-MB-453 [9] | 5.77
MDA-MB-468 | 7.4
MFM-223 [10] | 5.32
SK-BR-3 | 12.4

CC(=O)Nc1cccc(-n2c(=O)n(C3CC3)c(=O)c3c(Nc4ccc(I)cc4F)n(C)c(=O)c(C)c32)c1
normalised viability [%]
Conditions | CAL-120 [7] | CAL-148 [5] | DU-4475 [6] | Hs578T [1] | MDA-MB-436 [4] | MDA-MB-453 [2] | MFM-223 [3]
0.075 nM | – | 107 | 117 | – | – | 107 | –
0.25 nM | 113 | – | – | 129 | 104 | – | 98.8
0.75 nM | – | 96.2 | 59.7 | – | – | 113 | –
2.5 nM | – | 96.6 | 10.8 | – | – | 128 | –
25 nM | 68.1 | – | – | 84.8 | 97.8 | – | 84.5
250 nM | 47.6 | – | – | 83 | 95 | – | 64.4

Conditions | drug sensitivity score
BT-474 | 0
BT-549 | 0
CAL-51 | 7.72
CAL-85-1 | 12.1
CAL-120 [14] | 8.88
CAL-148 [12] | 0
DU-4475 [13] | 39.6
HCC1143 | 9.72
HCC1599 | 8.87
HCC1937 | 0
HDQ-P1 | 12.7
Hs578T [8] | 0
MDA-MB-231 | 21.7
MDA-MB-436 [11] | 0
MDA-MB-453 [9] | 6.65
MDA-MB-468 | 2.67
MFM-223 [10] | 0
SK-BR-3 | 0

CC1=C(/C=C/C(C)=C/C=C/C(C)=C/C(=O)O)C(C)(C)CCC1 [Tretinoin]
normalised viability [%]
Conditions | CAL-120 [7] | CAL-148 [5] | DU-4475 [6] | Hs578T [1] | MDA-MB-436 [4] | MDA-MB-453 [2] | MFM-223 [3]
3 nM | – | 81.6 | 78.4 | – | – | 121 | –
10 nM | 82.5 | – | – | 123 | 97.9 | – | 92.6
30 nM | – | 89.9 | 93.1 | – | – | 103 | –
100 nM | – | 87.8 | 83.7 | – | – | 105 | –
1000 nM | 81.2 | – | – | 105 | 81.6 | – | 89.7
10000 nM | 92.8 | – | – | 100 | 95.5 | – | 84.3

Conditions | drug sensitivity score
BT-474 | 0
BT-549 | 0
CAL-51 | 0
CAL-85-1 | 0
CAL-120 [14] | 0
CAL-148 [12] | 4.65
DU-4475 [13] | 0
HCC1143 | 0
HCC1599 | 3.35
HCC1937 | 0
HDQ-P1 | 0
Hs578T [8] | 0
MDA-MB-231 | 0
MDA-MB-436 [11] | 0
MDA-MB-453 [9] | 0
MDA-MB-468 | 0
MFM-223 [10] | 0
SK-BR-3 | 7.44

CC[C@@H]1C(=O)N(C)c2cnc(Nc3ccc(C(=O)NC4CCN(C)CC4)cc3OC)nc2N1C1CCCC1 [BI 2536]
normalised viability [%]
Conditions | CAL-120 [7] | CAL-148 [5] | DU-4475 [6] | Hs578T [1] | MDA-MB-436 [4] | MDA-MB-453 [2] | MFM-223 [3]
0.3 nM | – | 96.9 | 105 | – | – | 97.8 | –
1 nM | 97.5 | – | – | 114 | 95.7 | – | 87.2
3 nM | – | 92.9 | 86.5 | – | – | 56.6 | –
10 nM | – | 26.2 | 50.6 | – | – | 32.6 | –
100 nM | 28.6 | – | – | 29.9 | 65.3 | – | 48.6
1000 nM | 30.6 | – | – | 65.3 | 78.5 | – | 48.5

Conditions | drug sensitivity score
BT-474 | 0
BT-549 | 21.3
CAL-51 | 20.7
CAL-85-1 | 14.7
CAL-120 [14] | 21.6
CAL-148 [12] | 19.7
DU-4475 [13] | 19.3
HCC1143 | 13.2
HCC1599 | 0
HCC1937 | 22.8
HDQ-P1 | 5.37
Hs578T [8] | 8.18
MDA-MB-231 | 16.4
MDA-MB-436 [11] | 7.37
MDA-MB-453 [9] | 23
MDA-MB-468 | 15
MFM-223 [10] | 19
SK-BR-3 | 25.6

From the supplement of paper PMC4862054
